# Read-outs that look alike come from different tables or passages of the source.
# Columns and labels:
# C. albicans CaCi-8 = test: microbe, parasite or virus in culture; assay type: cell-based, Candida albicans
# Protocol: This subset was re-subjected to the primary assay and was also tested concurrently in two secondary assays. Secondary assay 1 measured chemosensitization of the more resistant CaCi-8 strain. Secondary assay 2 eliminated anything with inherently antifungal activity. […] A final assay (secondary assay 3) was incorporated to discard any compound displaying toxicity to mammalian fibroblasts. […] This screening campaign is also illustrated in FIG. 3B.
# Those that inhibited growth in the resistant strain were also tested for toxicity against Candida in the absence of fluconazole and for toxicity against mammalian cells using a fluorescence reporter assay. The positive control for screening in the Candida and mammalian cell assays was the Hsp90 inhibitor geldanamycin (acting in concert with fluconazole; FIG. 4). Compounds that passed these four hurdles were binned through use of a Saccharomyces assay to determine whether the mechanism of action might be through the Hsp90 pathway, the calcineurin pathway, or an uncategorized mechanism.
# C. albicans CaCi-2 [1] = test: CaCi-2 growth inhibition in the presence of 8 μg/ml fluconazole (Alamar Blue); assay type: cell-based, Candida albicans
# Protocol: Fluconazole was obtained from Sequoia Research Products, Ltd. and prepared in a 2 mg/ml stock solution in phosphate buffered saline (PBS). […] PBS (Catalog No. 21-040-CV) without calcium and magnesium was obtained from Cellgro. Penicillin/Streptomycin (Pen/Strep) was obtained from Gibco and prepared 100× in PBS.
# RPMI medium (1×) was prepared by dissolving 10.4 g powdered medium in 800 ml water. A buffer of 34.52 g MOPS was added. While stirring, pH was adjusted to 7.0 with 10 N NaOH. Next, 10 ml uridine solution and 50 ml glucose solution were added. The final volume was adjusted to 1000 ml, and filter sterilized.
# The following yeast strains were used in this study: C. albicans CaCi-2. Fungal inoculum was prepared as follows: 500 μl of strain was inoculated from cryopreserved stock into a 250-ml shaker flask containing 30 ml growth medium and shaken overnight at 30° C. The optical density (OD 600) of 1 ml fungal culture in a cuvette was read using a standard optical density reader (Eppendorf BioPhotometer Plus), with growth medium as a background blank. The desired volume of fungal inoculums was diluted to desired volume of fungal inoculums according to the following formula: (1/OD measured)×(Desired Final Volume of Inoculum)×0.3=Volume of fungal culture (μl) to add to desired volume of growth medium. When added to media in wells, this yields a calculated starting OD of the fungal inoculum of 0.00015.
# Fluconazole stock solution was added to the fungal inoculum to achieve 8 μg/ml. Pen/Strep was added to the media to a 1% concentration (v/v). A Thermo Combi nL was used to dispense 20 μl/well of assay media into all wells. Geldanamycin was dispensed in positive control wells using Thermo Combi nL for a final concentration of 3 μM. Then, 100 nl of test compound was pinned from compound plates into assay plates using a CyBi-Well pin tool. A further 20 μl/well of culture was dispensed into the assay media in all wells. The plates were incubated in a humidified (90% humidity) Liconic incubator at 37° C. without agitation for 48 hours. Alamar Blue was diluted 1:40 in Ca/Mg-free PBS. To all plates, […] of the diluted Alamar Blue was added to the plates to a final dilution factor of 1:200. The plates were incubated for an additional 2 hours. Then, Relative Fluorescence Intensity (RFU) of each well was read on standard plate reader as a measure of relative fungal growth.
# Plasma stability = settings: % remaining in human plasma after a 5-hour incubation
# Plasma protein binding = settings: % bound in human plasma
# C. albicans CaCi-2 [2] = test: Secondary single-agent (no-fluconazole) activity assay; assay type: cell-based, Candida albicans; settings: in the absence of fluconazole; read-out: Target Potency (μM) Mean ± S.E.M CaCi-2^b IC50
# Protocol: Clear, flat-bottom, black, 384-well plates were obtained from Corning. […] Pen/Strep was obtained from Gibco and prepared 100× in PBS. Fluconazole was obtained from Sigma and prepared in 2 mg/ml stock solution in PBS. Alamar Blue was obtained from Biosource International (Catalog No. DAL1100). Phosphate buffered solution (PBS) without calcium and magnesium was obtained from Cellgro.
# Fungal inoculum was prepared as follows: 500 μl of yeast was inoculated from cryopreserved stock into a 250-ml shaker flask containing 30 ml growth medium and shaken overnight (16 hours) at 30° C. The culture was spun down, and the broth was poured off and washed with RPMI medium. The culture was spun down again, and the broth was poured off and resuspended in RPMI medium. The OD 600 of 1 ml of fungal culture in a cuvette was read using a standard optical density reader with growth medium as a background blank. The desired volume of fungal inoculum was diluted to starting OD of the fungal inoculum of 0.00015 A600.
# Pen/Strep was added to the media to a final 1% concentration. A Combi NL (Thermo) was used to dispense 20 μl/well of assay media into all wells. Geldanamycin (1.5 mM) and fluconazole (0.2 mg/ml) were mixed for the positive control. Then, 80 nl of positive control solution was dispensed into the positive control wells using Thermo Combi nL for a final concentration of 3 μM geldanamycin and 8 μg/ml fluconazole. Then, 100 nl of test compound were pinned from the compound plates into assay plates using a CyBi-Well pin tool. A further 20 μl/well of RPMI synthetic defined medium culture was dispensed into 384-well, black plates. Fungal suspension (20 μl/well) was dispensed into all wells. The plates were incubated in a humidified (90% humidity) Liconic incubator at 37° C. without agitation for 48 hours. Alamar Blue Reagent was diluted 1:40 in Ca/Mg-free PBS. To all plates, 6.4 μl/well of the diluted Alamar Blue was added to the plates to a final dilution factor of 1:200. The plates were incubated for 2 hours at room temperature. Next, RFU of wells was read on a standard plate reader as a measure of relative fungal growth.
# [3] = 37° C., 48 hours, with 8 μg/mL (26 μM) fluconazole, average of at least three experiments, read-out: CaCi-8 IC50
# [4] = 37° C., 48 hours, with 8 μg/mL (26 μM) fluconazole, average of at least three experiments, read-out: CaCi-2 IC50
# [5] = 37° C., 48 hours, with 8 μg/mL (26 μM) fluconazole, average of at least three experiments
# [6] = in the presence of fluconazole, read-out: Target Potency (μM) Mean ± S.E.M CaCi-8^a IC50
# [7] = Table 12, read-out: CaCi-8 IC50 with 8 μg/ml fluconazole
Structure (SMILES),IC50 (C. albicans CaCi-8; [3]) [µM],IC50 (C. albicans CaCi-2 [1]; [4]) [µM],CaCi-8 IC50 (μM) (C. albicans CaCi-8; [5]),CaCi-2 IC50 (μM) (C. albicans CaCi-2 [1]; [5]),further results
COC(=O)Cn1nc(-c2ccc(C)cc2)c2ccccc21 [Cpd 30],19.5 ± 14.2,4.8 ± 2.5,–,–,–
CCc1nn(CC(=O)OC)c2ccccc12 [—Et],–,–,inactive,inactive,–
COC(=O)Cn1nc(-c2ccc(F)cc2)c2ccccc21 [Cpd 32],12.3 ± 3.9,8.3 ± 2.8,–,–,–
COC(=O)Cn1nc(-c2ccccc2)c2cccnc21,–,–,inactive,inactive,–
COC(=O)Cn1nc(-c2ccccc2)c2cc(F)ccc21 [Compound 5-F],–,11.2 ± 7.2,inactive,–,–
COC(=O)Cn1nc(-c2ccccc2)c2ccc(C)cc21 [Compound 6-Me],–,5.9 ± 3.1,inactive,–,–
COC(=O)Cn1nc(-c2cccc(C)c2)c2ccccc21 [Cpd 35],1.9 ± 0.9,1.1 ± 0.6,–,–,–
COC(=O)Cn1nc(-c2ccccc2)c2ccc(C(F)(F)F)cc21 [Compound 6-CF3],–,–,inactive,inactive,–
COC(=O)Cn1nc(-c2ccccc2OC)c2ccccc21 [Cpd 40],11.4 ± 1.7,9.3 ± 3.6,–,–,–
COC(=O)Cn1nc(-c2ccccc2)c2ccc(OC)cc21 [Compound 6-OMe],12.4 ± 0.5,9.5 ± 2.5,–,–,–
COC(=O)Cn1nc(C(C)(C)C)c2ccccc21,–,–,inactive,inactive,–
COC(=O)Cn1nc(-c2cncnc2)c2ccccc21 [drawing 229],21.1 ± 3.3,–,–,inactive,–
COC(=O)Cn1nc(-c2ccc(C(F)(F)F)cc2)c2ccccc21 [Cpd 33],–,–,inactive,inactive,–
COC(=O)Cn1nc(-c2ccccc2)c2ccc(Cl)cc21 [Compound 6-Cl],8.4 ± 0.5,4 ± 1.3,–,–,–
COC(=O)Cn1nc(-c2cscn2)c2ccccc21,–,12.9 ± 1.7,inactive,–,–
COC(=O)Cn1nc(-c2cnco2)c2ccccc21,–,–,inactive,inactive,–
"COC(=O)Cn1nc(-c2ccccc2)c2ccccc21 [Compound I-16, methyl 3-phenyl-1H-indazole acetate]",–,–,–,–,"IC50 (C. albicans CaCi-2 [1]; Candida albicans, CACI2, Table 12, read-out: CaCi-2 IC50 with 8 μg/ml fluconazole): 1.8 µM"
COC(=O)Cn1nc(-c2ccccc2C)c2ccccc21 [Cpd 39],7.8 ± 2.6,5.3 ± 0.5,–,–,–
COC(=O)Cn1nc(-c2cccnc2)c2ccccc21 [drawing 228],–,–,inactive,–,CaCi-2 IC50 (μM) (C. albicans CaCi-2 [1]): inactive
COC(=O)Cn1nc(-c2ccccc2)c2cc(Cl)ccc21 [Compound 9551137],–,–,–,–,Plasma Stability (Plasma stability): < 1.0%; Plasma Protein Binding (Plasma protein binding): > 99%; IC50 (C. albicans CaCi-2 [2]): > 26 µM; IC50 (C. albicans CaCi-8; [6]): 9.84 µM

Structure (SMILES),IC50 (C. albicans CaCi-8; [3]) [µM],IC50 (C. albicans CaCi-2 [1]; [4]) [µM],CaCi-8 IC50 (μM) (C. albicans CaCi-8; [5]),CaCi-2 IC50 (μM) (C. albicans CaCi-2 [1]; [5]),further results
COC(=O)Cn1nc(-c2ccccc2)c2cc(C)ccc21 [Compound 5-Me],8.2 ± 3.2,5.2 ± 2.2,–,–,–
COC(=O)Cn1nc(-c2cc(OC)cc(OC)c2)c2ccccc21 [Cpd 41],–,–,inactive,inactive,–
COC(=O)Cn1ncc2ccccc21 [—H],–,–,inactive,inactive,–
COC(=O)C(C)(C)n1nc(-c2ccccc2)c2ccccc21 [Compound 49835873],–,–,–,–,Plasma Stability (Plasma stability): 63%; Plasma Protein Binding (Plasma protein binding): > 99%; IC50 (C. albicans CaCi-2 [2]): > 26 µM; IC50 (C. albicans CaCi-8; [6]): > 26 µM
COC(=O)Cn1nc(-c2ccc(C#N)cc2)c2ccccc21 [Cpd 34],20.5 ± 0.3,–,–,inactive,–
COC(=O)Cn1nc(-c2ccccc2)c2ccc(OC)cc21 [Compound 49835812],–,–,–,–,Plasma Stability (Plasma stability): 1.3%; Plasma Protein Binding (Plasma protein binding): 38%; IC50 (C. albicans CaCi-2 [2]): > 26 µM; IC50 (C. albicans CaCi-8; [6]): 12.7 µM
COC(=O)Cn1nc(-c2ccc(Cl)cc2)c2ccccc21 [Compound 46856253],–,–,–,–,Plasma Stability (Plasma stability): 6.4%; Plasma Protein Binding (Plasma protein binding): > 99%; IC50 (C. albicans CaCi-2 [2]): > 26 µM; IC50 (C. albicans CaCi-8; [6]): 11.6 µM
COC(=O)Cn1nc(-c2cccc(N(C)C)c2)c2ccccc21 [Cpd 37],2 ± 0.2,0.8 ± 0.1,–,–,–
COC(=O)Cn1nc(-c2ccccc2)c2ccc(C#N)cc21 [Compound 6-CN],–,–,inactive,inactive,–
COC(=O)Cn1nc(-c2cccc(OC)c2)c2ccccc21 [Cpd 36],1.5 ± 0.6,0.7 ± 0.3,–,–,–
COC(=O)Cn1nc(-c2ccccc2)c2cccc(C(F)(F)F)c21 [Compound 7-CF3],–,–,inactive,inactive,–
COC(=O)Cn1nc(-c2ccccc2)c2cc(OC)ccc21 [Compound 49835837],–,–,–,–,Plasma Stability (Plasma stability): PBS Solubility: <1.0 μM Plasma Protein Binding: <1.0% Plasma Stability: <1.0% Purity (UPLC): >99%; Plasma Protein Binding (Plasma protein binding): PBS Solubility: <1.0 μM Plasma Protein Binding: <1.0% Plasma Stability: <1.0% Purity (UPLC): >99%; IC50 (C. albicans CaCi-2 [2]): > 26 µM; IC50 (C. albicans CaCi-8; [6]): 18.5 µM
COC(=O)Cn1nc(-c2cccc(F)c2)c2ccccc21 [CID 49835858],–,–,–,–,"IC50 (C. albicans CaCi-8; [7]): 2.1 µM; IC50 (C. albicans CaCi-2 [1]; Table 12, read-out: CaCi-2 IC50 with 8 μg/ml fluconazole): 1.4 µM"
CCCCn1nc(-c2ccccc2)c2ccccc21 [Compound 49835848],–,–,–,–,Plasma Stability (Plasma stability): 81%; Plasma Protein Binding (Plasma protein binding): > 99%; IC50 (C. albicans CaCi-2 [2]): > 26 µM; IC50 (C. albicans CaCi-8; [6]): > 26 µM
COC(=O)Cn1nc(-c2cccc(F)c2)c2ccccc21 [Cpd 38],4.2 ± 4.1,1.7 ± 0.4,–,–,–
COC(=O)Cn1nc(C2CC2)c2ccccc21,–,–,Inactive,inactive,–
COC(=O)Cn1nc(C2CCCCC2)c2ccccc21,6 ± 1.7,2.3 ± 0.3,–,–,–
COC(=O)Cn1nc(-c2ccc(OC)cc2)c2ccccc21 [Cpd 31],14.1 ± 6.4,4.2 ± 1.7,–,–,–
COC(=O)Cn1nc(-c2ccccc2)c2cc(OC)ccc21 [Compound 5-OMe],22.1 ± 6.2,14.9 ± 5.7,–,–,–
COC(=O)Cn1nc(-c2cccc(C)c2)c2ccccc21 [CID 49835823],–,–,–,–,"IC50 (C. albicans CaCi-8; [7]): 1.3 µM; IC50 (C. albicans CaCi-2 [1]; in the presence of fluconazole, read-out: CaCi-2 growth inhibition IC50): 0.65 µM"

# Source: patent US9738610B2, “Indazole derivatives and uses thereof” (Whitehead Institute for Biomedical Research, priority 2012, dated 2017)
